Experimental data: ChEMBL document CHEMBL1127814, “Preferred orientations in the binding of 4'-hydroxyacetanilide (acetaminophen) to cytochrome P450 1A1 and 2B1 isoforms as determined by 13C- and 15N-NMR relaxation studies” (J Med Chem, 1994)

How the values were obtained:
Cytochrome P450 2B1 = target: T1, Cytochrome P450 2B1 (Rattus norvegicus, UniProt P00176); assay: Spectral dissociation constant for rat liver Cytochrome P450 2B1; assay type: ADME; conditions: read-out: Ks
T1 sequence (P00176 whole entry): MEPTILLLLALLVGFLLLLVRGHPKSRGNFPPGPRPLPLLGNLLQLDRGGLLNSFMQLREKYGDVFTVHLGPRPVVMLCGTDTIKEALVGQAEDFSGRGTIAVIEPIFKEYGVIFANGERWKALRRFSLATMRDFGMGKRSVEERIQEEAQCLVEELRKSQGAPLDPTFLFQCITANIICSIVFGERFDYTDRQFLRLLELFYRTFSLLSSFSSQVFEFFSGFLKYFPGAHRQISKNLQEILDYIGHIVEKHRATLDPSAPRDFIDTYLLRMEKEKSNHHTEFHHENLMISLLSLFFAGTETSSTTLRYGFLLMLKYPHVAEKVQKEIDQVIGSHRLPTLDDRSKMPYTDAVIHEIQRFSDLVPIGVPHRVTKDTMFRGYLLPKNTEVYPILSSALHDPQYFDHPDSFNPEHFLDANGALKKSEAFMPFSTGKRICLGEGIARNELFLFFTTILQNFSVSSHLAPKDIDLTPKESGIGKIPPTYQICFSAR

Cytochrome P450 1A1 = target: T2, Cytochrome P450 1A1 (Rattus norvegicus, UniProt P00185); assay: Spectral dissociation constant for rat liver Cytochrome P450 1A1; assay type: ADME; conditions: read-out: Ks
T2 sequence (P00185 whole entry): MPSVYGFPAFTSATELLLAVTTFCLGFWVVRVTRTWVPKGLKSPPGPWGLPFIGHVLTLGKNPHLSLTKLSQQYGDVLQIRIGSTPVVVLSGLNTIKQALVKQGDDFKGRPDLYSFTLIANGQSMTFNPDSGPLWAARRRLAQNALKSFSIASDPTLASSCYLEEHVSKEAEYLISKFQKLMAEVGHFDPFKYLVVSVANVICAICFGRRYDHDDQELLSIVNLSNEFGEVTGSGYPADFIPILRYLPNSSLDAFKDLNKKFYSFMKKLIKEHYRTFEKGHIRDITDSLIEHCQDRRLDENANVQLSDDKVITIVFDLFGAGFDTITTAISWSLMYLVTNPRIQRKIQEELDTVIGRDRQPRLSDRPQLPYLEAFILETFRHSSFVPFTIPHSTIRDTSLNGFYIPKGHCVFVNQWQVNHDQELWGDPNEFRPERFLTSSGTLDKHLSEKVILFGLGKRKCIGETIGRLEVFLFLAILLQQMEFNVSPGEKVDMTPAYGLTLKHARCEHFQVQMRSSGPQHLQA

Kd (Cytochrome P450 2B1): 800 µM
Kd (Cytochrome P450 1A1): 870 µM
SMILES: CC(=O)Nc1ccc(O)cc1 [ACETAMINOPHEN]
